Values quoted from earlier work, collected in patent US5969017A, “Methods of treating or preventing cardiac arrhythmia” (Merck & Co., Inc., priority 1997, dated 1999).

How the values were obtained:
[1] = tested on: IKr; conditions: background; cited from earlier work
[2] = tested on: L-type Ca2+ channels; conditions: Kass 1982; cited from earlier work
[3] = tested on: K+ currents; conditions: 0.4 mM as printed; cited from earlier work
[4] = tested on: ICa; conditions: background; cited from earlier work
[5] = molecular target: T1, IKs (Cavia porcellus, UniProt O70344); conditions: Balser et al., guinea pig ventricular myocytes; cited from earlier work
T1 construct: Guinea pig ventricular myocytes were isolated; endogenous in cells; host or cells: isolated guinea pig ventricular myocytes
T1 sequence (O70344 whole entry): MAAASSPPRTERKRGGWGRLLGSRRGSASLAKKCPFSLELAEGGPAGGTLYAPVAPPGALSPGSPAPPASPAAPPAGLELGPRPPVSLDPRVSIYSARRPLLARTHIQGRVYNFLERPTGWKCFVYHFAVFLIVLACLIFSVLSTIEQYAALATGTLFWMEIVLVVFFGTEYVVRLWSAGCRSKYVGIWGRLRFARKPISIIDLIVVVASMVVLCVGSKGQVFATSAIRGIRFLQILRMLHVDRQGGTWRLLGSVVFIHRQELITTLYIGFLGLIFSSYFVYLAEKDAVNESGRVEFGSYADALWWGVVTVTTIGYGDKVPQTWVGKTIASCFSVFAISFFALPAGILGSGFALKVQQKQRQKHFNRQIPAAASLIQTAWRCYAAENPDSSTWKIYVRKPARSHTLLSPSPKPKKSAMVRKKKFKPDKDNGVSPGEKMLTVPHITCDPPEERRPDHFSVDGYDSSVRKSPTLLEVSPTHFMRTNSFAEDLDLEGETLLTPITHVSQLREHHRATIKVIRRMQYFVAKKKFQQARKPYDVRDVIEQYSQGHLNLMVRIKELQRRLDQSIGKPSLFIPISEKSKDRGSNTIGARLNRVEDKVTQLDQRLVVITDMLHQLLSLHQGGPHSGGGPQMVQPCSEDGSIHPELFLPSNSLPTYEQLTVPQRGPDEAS
T1 sequence (Q60409 whole entry partner): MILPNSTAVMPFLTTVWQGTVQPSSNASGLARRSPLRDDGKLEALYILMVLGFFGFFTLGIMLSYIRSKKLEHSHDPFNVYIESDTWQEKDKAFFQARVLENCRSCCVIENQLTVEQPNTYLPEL

[6] = tested on: INa; conditions: background; cited from earlier work

## CS(=O)(=O)Nc1ccc2c(c1)C(O)CC1(CCN(C3CCc4cc(C#N)ccc4C3)CC1)O2 (single isomer, unassigned) [MK-499, methanesulfonamide--N--[1'-6-cyano-1,2,3,4-tetrahydro-2-naphthalenyl)-3,4-dihydro-4-hydroxyspiro[2H-1-benzopyran-2,4'-piperidin]-6yl], (+)-, monochloride]
[1]
  block of IKr (in words): predominantly, if not exclusively, block IKr

## COC(=O)C1=C(C)NC(C)=C(C(=O)OCC(C)C)C1c1ccccc1[N+](=O)[O-] (centres unmarked) [Nisoldipine]
[2]
  block of L-type Ca2+ channels (in words): relatively specific blocker
[3]
  effect on K+ currents (in words): no effect on K^+ currents

## CCCCc1oc2ccccc2c1C(=O)c1cc(I)c(OCCN(CC)CC)c(I)c1 [amiodarone]
[4]
  block of ICa (in words): blocks INa and ICa
[5]
  block of IKs (in words): blocker of IKs
[6]
  block of INa (in words): blocks INa

## CN(CCOc1ccc(NS(C)(=O)=O)cc1)CCc1ccc(NS(C)(=O)=O)cc1 [dofetilide]
[1]
  block of IKr (in words): predominantly, if not exclusively, block IKr

## CC(C)NC[C@@H](O)c1ccc(NS(C)(=O)=O)cc1 [d-sotalol]
[1]
  block of IKr (in words): predominantly, if not exclusively, block IKr
